Reference: patent publication US20190031615A1, “3-ETHYL-3-PHENYLAZEPANE DERIVATIVES HAVING MULTIMODAL ACTIVITY AGAINST PAIN” (LABORATORIOS DEL DR. ESTEVE S.A., priority 2016, published 2019)

target: σ1 receptor and μ-opioid receptor; assay: Human σ1 receptor and human μ-opioid receptor radioligand assays (dual binding scale); design: key to μ and σ1 dual binding: +: Both Ki-μ and Ki-σ1>=500 nM; ++: One Ki <500 nM while the other Ki is >=500 nM; +++: Both Ki-μ and Ki-σ1 <500 nM; ++++: Both Ki-μ and Ki-σ1 <100 nM; settings: joint class for both Ki; σ1: [3H](+)-pentazocine, transfected HEK-293 membranes; μ: [3H]-DAMGO, transfected CHO-K1 cell membranes
Description: To investigate binding properties of test compounds to human […] receptor, transfected HEK-293 membranes and [^3H](+)-pentazocine (Perkin Elmer, NET-1056), as the radioligand, were used. The assay was carried out with 7 μg of membrane suspension, 5 nM of [^3H](+)-pentazocine in either absence or presence of either buffer or 10 μM Haloperidol for total and non-specific binding, respectively. Binding buffer contained Tris-HCl 50 mM at pH 8. Plates were incubated at 37° C. for 120 minutes. After the incubation period, the reaction mix was then transferred to MultiScreen HTS, FC plates (Millipore), filtered and plates were washed 3 times with ice-cold 10 mM Tris-HCL (pH7.4). Filters were dried and counted at approximately 40% efficiency in a MicroBeta scintillation counter (Perkin-Elmer) using EcoScint liquid scintillation cocktail
To investigate binding properties of test compounds to human μ-opioid receptor, transfected CHO-K1 cell membranes and [^3H]-DAMGO (Perkin Elmer, ES-542-C), as the radioligand, were used. The assay was carried out with 20 μg of membrane suspension, 1 nM of [^3H]-DAMGO in either absence or presence of either buffer or 10 μM Naloxone for total and non-specific binding, respectively. Binding buffer contained Tris-HCl 50 mM, MgCl2 5 mM at pH 7.4. Plates were incubated at 27° C. for 60 minutes. After the incubation period, the reaction mix was then transferred to MultiScreen HTS, FC plates (Millipore), filtered and plates were washed 3 times with ice-cold 10 mM Tris-HCL (pH 7.4). Filters were dried and counted at approximately 40% efficiency in a MicroBeta scintillation counter (Perkin-Elmer) using EcoScint liquid scintillation cocktail.

| SMILES | Ki [nM] | μ and σ1 dual binding |
| --- | --- | --- |
| CCOCCN1CCCCC(CC)(c2cccc(OC)c2)C1 (stereo not shown) [Example 5, 1-(2-ethoxyethyl)-3-ethyl-3-(3-methoxyphenyl)azepane] | ≥ 500 |  |
| CCC1(c2cccc(O)c2)CCCCN(CCO)C1 (stereo not shown) [Example 10, 3-(3-ethyl-1-(2-hydroxyethyl)azepan-3-yl)phenol] |  | ++ |
| CCOCCN1CCCC[C@@](CC)(c2cccc(O)c2)C1 (stereo in doubt) [Example 20, (S)-3-(1-(2-ethoxyethyl)-3-ethylazepan-3-yl)phenol] |  | ++ |
| CCC1(c2cccc(OC)c2)CCCCN(CCN2CCOCC2)C1 (stereo not shown) [Example 3, 4-(2-(3-Ethyl-3-(3-methoxyphenyl)azepan-1-yl)ethyl)morpholine] | ≥ 500 |  |
| CCOCCN1CCCC[C@](CC)(c2cccc(O)c2)C1 (stereo in doubt) [Example 21, (R)-3-(1-(2-ethoxyethyl)-3-ethylazepan-3-yl)phenol] |  | ++ |
| CCC1(c2cccc(O)c2)CCCCN(CCN2CCOCC2)C1 (stereo not shown) [Example 8, 3-(3-ethyl-1-(2-morpholinoethyl)azepan-3-yl)phenol] |  | ++ |
| CCC1(c2cccc(O)c2)CCCCN(CCN2CCCCC2)C1 (stereo not shown) [Example 9, 3-(3-ethyl-1-(2-(piperidin-1-yl)ethyl)azepan-3-yl)phenol] | < 500 |  |
| CCC1(c2cccc(O)c2)CCCCN(CCN2CCN(C)CC2)C1 (stereo not shown) [Example 6, 3-(3-Ethyl-1-(2-(4-methylpiperazin-1-yl)ethyl)azepan-3-yl)phenol] |  | ++ |
| CCC1(c2cccc(O)c2)CCCCN(CCOC2CC2)C1 (stereo not shown) [Example 18, 3-(1-(2-cyclopropoxyethyl)-3-ethylazepan-3-yl)phenol] |  | ++ |
| CCC1(c2cccc(O)c2)CCCCN(CCN2CCN(c3ccccc3)CC2)C1 (stereo not shown) [Example 7, 3-(3-ethyl-1-(2-(4-phenylpiperazin-1-yl)ethyl)azepan-3-yl)phenol] |  | ++ |
| CCOCCN1CCCCC(CC)(c2cccc(NS(=O)(=O)C(C)C)c2)C1 (stereo not shown) [Example 24, N-{3-[1-(2-Ethoxyethyl)-3-ethylazepan-3-yl]phenyl}propane-2-sulfonamide] | ≥ 500 |  |
| CCC1(c2cccc(O)c2)CCCCN(CCOCC(C)(C)O)C1 (stereo not shown) [Example 19, 3-(3-ethyl-1-(2-(2-hydroxy-2-methylpropoxy)ethyl)azepan-3-yl)phenol] |  | ++ |
| CCOCCN1CCCCC(CC)(c2cccc(N)c2)C1 (stereo not shown) [Example 22, 3-[1-(2-Ethoxyethyl)-3-ethylazepan-3-yl]aniline] | ≥ 500 |  |
| CCC1(c2cccc(OC)c2)CCCCN(CCN2CCCCC2)C1 (stereo not shown) [Example 4, 3-ethyl-3-(3-methoxyphenyl)-1-(2-(piperidin-1-yl)ethyl)azepane] | ≥ 500 |  |
| CCC1(c2cccc(O)c2)CCCCN(CCOC)C1 (stereo not shown) [Example 17, 3-(3-ethyl-1-(2-methoxyethyl)azepan-3-yl)phenol] |  | ++ |
| CCC1(c2cccc(O)c2)CCCCN(CCOc2cccnc2)C1 (stereo not shown) [Example 14, 3-(3-ethyl-1-(2-(pyridin-3-yloxy)ethyl)azepan-3-yl)phenol] |  | ++ |
| CCC1(c2cccc(O)c2)CCCCN(CC(=O)N2CCCCC2)C1 (stereo not shown) [Example 13, 2-(3-ethyl-3-(3-hydroxyphenyl)azepan-1-yl)-1-(piperidin-1-yl)ethanone] |  | ++ |
| CCC1(c2cccc(O)c2)CCCCN(CC(=O)N2CCOCC2)C1 (stereo not shown) [Example 16, 2-(3-ethyl-3-(3-hydroxyphenyl)azepan-1-yl)-1-morpholinoethanone] | ≥ 500 |  |
| CCOCCN1CCCCC(CC)(c2cccc(O)c2)C1 (stereo not shown) [Example 11, 3-(1-(2-Ethoxyethyl)-3-ethylazepan-3-yl)phenol] | < 100 |  |
| CCC1(c2cccc(O)c2)CCCCN(CCOC(C)C)C1 (stereo not shown) [Example 12, 3-(3-ethyl-1-(2-isopropoxyethyl)azepan-3-yl)phenol] | < 500 |  |
| CCC1(c2cccc(OC)c2)CCCCN(CCN2CCN(C)CC2)C1 (stereo not shown) [Example 1, 3-Ethyl-3-(3-methoxyphenyl)-1-(2-(4-methylpiperazin-1-yl)ethyl)azepane] | ≥ 500 |  |
| CCOCCN1CCCCC(CC)(c2cccc(NS(C)(=O)=O)c2)C1 (stereo not shown) [Example 23, N-{3-[1-(2-Ethoxyethyl)-3-ethylazepan-3-yl]phenyl}methanesulfonamide] | ≥ 500 |  |
